For assay [1], the system named is carrageenin induced rat paw edema. As to the kind of experiment: carrageenin induced rat paw edema antiinflammatory assay. Type of assay: in vivo. To be noted: for Carrageenin Paw Edema %: dose 20 mg/kg (p.o.), rat. From the text: The compounds of the present invention are useful as antiinflammatory agents due to their ability to suppress inflammation in mammals. […] Exptl. Biol. Med., III 544 (1962), J. Pharmacol. Exp., 141 (1963)].
On the technique in general: The carrageenan paw model is a standard test of acute inflammation.

The subject of assay [2] is 2-phenyl-1,4-benzoquinone-induced writhing. Nature of the assay: 2-phenyl-1,4-benzoquinone-induced writhing test in mice (analgesia). To be noted: Mus musculus, po. Type of assay: in vivo. For orientation: An intraperitoneal irritant provokes the stretching counted in writhing tests.
[3] abbreviates: mice, read-out: Phenylquinone Writhing ED50 Orally (p.o.).

Where two headings read alike, the source gives them in different places.

The record followed here is patent US4477465A, “Substituted 4,10-dihydro-10-oxothieno benzoxepins” (Hoechst-Roussel Pharmaceuticals Inc., priority 1983, dated 1984).

In general, ED50 refers to the midpoint of the dose-response relation. Regarding `CC1(C)COC(Cc2ccc3c(c2)C(=O)c2sccc2CO3)=N1` [2-(4,10-Dihydro-10-oxothieno[3,2-c][1]benzoxepin-8-yl)methyl-4,4-dimethyl-oxazoline], in assay [1], the “Carrageenin Paw Edema %” value was determined as 49%. In addition, the ED50 in assay [2] (setting [3]) stood at 7.22 mg/kg.

With `COC(=O)COC(=O)Cc1ccc2c(c1)C(=O)c1sccc1CO2` [Methyl (4,10-dihydro-10-oxothieno[3,2-c][1]benzoxepin-8-yl) acetoxyacetate], the “Carrageenin Paw Edema %” value in assay [1] was determined as 43%. Also, the ED50 in assay [2] (setting [3]) was found to be 1.53 mg/kg.

`COc1ccc2c(c1)c(CC(=O)O)c(C)n2C(=O)c1ccc(Cl)cc1` [indomethacin, reference compound]: the ED50 in assay [2] (read-out: analgesic activity ED50) turned out to be 0.7 mg/kg.

With `CCCCC1C(=O)N(c2ccccc2)N(c2ccccc2)C1=O` [phenylbutazone, reference compound], in assay [1] (dose 50 mg/kg (p.o.), in a similar test), the inhibition of edema is reported as 50%.
